# Measurements published in patent publication US8329685B1, “Enhancement of the action of anti-infective agents and of central and peripheral nervous system agents and transportation of nucleic acid substances” (priority 2001, dated 2012).
# Test system: M.Tb. drug resistant strain TV25
# Type: cell-based, Mycobacterium tuberculosis
smiles,measurement,setting,value
"NNC(=O)c1ccncc1 [INH, Isoniazid]",additional effectiveness of INH in the presence of MZL,,41.5%
same,effect of INH alone,without MZL,no effect
